Experimental data from ChEMBL document CHEMBL1147216, “Parallel synthesis and SAR study of novel oxa-steroids as potent and selective progesterone receptor antagonists” (Bioorg Med Chem Lett, 2007).

How the values were obtained:
Progesterone receptor = target: T1, Progesterone receptor (Homo sapiens, UniProt P06401); experiment: Antagonist activity at human progesterone receptor assessed as inhibition of alkaline phosphatase activity in human T47D cells; type: functional, cell-based
T1 sequence (P06401 whole entry): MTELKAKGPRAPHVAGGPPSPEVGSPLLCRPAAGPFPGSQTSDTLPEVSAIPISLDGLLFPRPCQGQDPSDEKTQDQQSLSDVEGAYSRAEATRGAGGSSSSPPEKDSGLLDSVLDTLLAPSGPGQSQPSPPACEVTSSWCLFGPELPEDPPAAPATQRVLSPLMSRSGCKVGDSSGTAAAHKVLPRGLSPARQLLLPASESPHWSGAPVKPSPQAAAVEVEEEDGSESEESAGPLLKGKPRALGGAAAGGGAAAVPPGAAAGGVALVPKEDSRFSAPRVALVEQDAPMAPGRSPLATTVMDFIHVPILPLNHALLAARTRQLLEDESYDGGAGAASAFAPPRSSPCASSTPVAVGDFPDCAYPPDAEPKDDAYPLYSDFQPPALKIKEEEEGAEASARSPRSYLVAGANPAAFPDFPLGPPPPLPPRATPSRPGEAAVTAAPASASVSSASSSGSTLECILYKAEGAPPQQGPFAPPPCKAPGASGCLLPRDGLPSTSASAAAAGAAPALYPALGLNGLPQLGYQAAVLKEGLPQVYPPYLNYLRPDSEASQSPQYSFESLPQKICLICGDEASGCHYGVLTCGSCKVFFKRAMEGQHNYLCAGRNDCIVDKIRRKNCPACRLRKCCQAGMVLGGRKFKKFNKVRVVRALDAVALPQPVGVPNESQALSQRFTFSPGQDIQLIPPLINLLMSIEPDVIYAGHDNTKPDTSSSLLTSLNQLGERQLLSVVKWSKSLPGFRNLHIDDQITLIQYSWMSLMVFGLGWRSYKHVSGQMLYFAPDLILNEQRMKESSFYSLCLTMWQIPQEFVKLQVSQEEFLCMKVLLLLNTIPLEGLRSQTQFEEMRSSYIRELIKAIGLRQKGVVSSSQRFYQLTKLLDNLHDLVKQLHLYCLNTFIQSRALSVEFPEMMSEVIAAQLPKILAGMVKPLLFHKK

Homo sapiens = species: Homo sapiens; experiment: Selectivity of human progesterone receptor over human glucocorticoid receptor
Glucocorticoid receptor = target: T2, Glucocorticoid receptor (Homo sapiens, UniProt P04150); experiment: Antagonist activity at human glucocorticoid receptor assessed as inhibition of corticoid-induced transcription in human A549 cells by GRE-linked luciferase reporter gene assay; type: functional, cell-based
T2 sequence (P04150 whole entry): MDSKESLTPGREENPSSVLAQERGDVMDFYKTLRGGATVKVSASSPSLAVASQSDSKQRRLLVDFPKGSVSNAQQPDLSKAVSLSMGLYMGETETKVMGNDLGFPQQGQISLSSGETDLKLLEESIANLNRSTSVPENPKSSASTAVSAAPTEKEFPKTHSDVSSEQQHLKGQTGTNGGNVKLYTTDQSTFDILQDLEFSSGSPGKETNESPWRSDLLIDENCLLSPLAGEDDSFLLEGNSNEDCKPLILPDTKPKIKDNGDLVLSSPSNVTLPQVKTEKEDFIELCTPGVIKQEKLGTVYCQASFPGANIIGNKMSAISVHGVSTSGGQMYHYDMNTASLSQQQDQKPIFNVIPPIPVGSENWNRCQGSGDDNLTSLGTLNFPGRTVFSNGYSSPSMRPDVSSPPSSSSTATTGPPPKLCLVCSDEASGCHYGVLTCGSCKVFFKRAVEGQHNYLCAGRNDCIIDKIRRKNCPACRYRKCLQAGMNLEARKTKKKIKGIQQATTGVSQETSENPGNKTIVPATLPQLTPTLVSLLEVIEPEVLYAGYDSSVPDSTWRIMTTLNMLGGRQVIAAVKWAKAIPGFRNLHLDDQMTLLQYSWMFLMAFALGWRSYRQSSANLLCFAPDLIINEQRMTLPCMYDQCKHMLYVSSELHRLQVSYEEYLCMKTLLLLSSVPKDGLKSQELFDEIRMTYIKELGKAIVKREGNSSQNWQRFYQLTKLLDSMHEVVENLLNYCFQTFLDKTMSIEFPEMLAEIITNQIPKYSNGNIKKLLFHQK

SMILES | IC50 (Progesterone receptor) [nM] | Ratio IC50 (Homo sapiens) | IC50 (Glucocorticoid receptor) [nM]
Cc1ccccc1C#C[C@]1(O)CC[C@H]2[C@@H]3OCC4=CC(=O)CCC4=C3[C@@H](c3ccc(N(C)C)cc3)C[C@@]21C | 5.8 | 20 | 113
CN(C)c1ccc([C@H]2C[C@@]3(C)[C@@H](CC[C@@]3(O)C#Cc3ccccc3F)[C@@H]3OCC4=CC(=O)CCC4=C32)cc1 | 1.4 | 47 | 65.1
CC#C[C@]1(O)CC[C@H]2[C@@H]3OCC4=CC(=O)CCC4=C3[C@@H](c3ccc(N(C)C)cc3)C[C@@]21C | – | 12 | –
CN(C)c1ccc([C@H]2C[C@@]3(C)[C@@H](CC[C@@]3(O)C#Cc3ccc(C(F)(F)F)cc3)[C@@H]3OCC4=CC(=O)CCC4=C32)cc1 | 0.75 | 148 | 111
CN(C)c1ccc([C@H]2C[C@@]3(C)[C@@H](CC[C@@]3(O)C#Cc3cccnc3)[C@@H]3OCC4=CC(=O)CCC4=C32)cc1 | 21 | 16 | 342
COc1ccc(C#C[C@]2(O)CC[C@H]3[C@@H]4OCC5=CC(=O)CCC5=C4[C@@H](c4ccc(N(C)C)cc4)C[C@@]32C)cc1 | 3.2 | 25 | 80.3
CN(C)c1ccc([C@H]2C[C@@]3(C)[C@@H](CC[C@@]3(O)C#Cc3ccccc3)[C@@H]3OCC4=CC(=O)CCC4=C32)cc1 | – | 217 | –
CN(C)c1ccc([C@H]2C[C@@]3(C)[C@@H](CC[C@@]3(O)C#Cc3ccc(Cl)cc3)[C@@H]3OCC4=CC(=O)CCC4=C32)cc1 | 0.61 | 71 | 43.5
CN(C)c1ccc([C@H]2C[C@@]3(C)[C@@H](CC[C@@]3(O)C#Cc3ccc(C(C)(C)C)cc3)[C@@H]3OCC4=CC(=O)CCC4=C32)cc1 | 19.5 | 3 | 65.8
CN(C)c1ccc([C@H]2C[C@@]3(C)[C@@H](CC[C@@]3(O)C#Cc3ccc(F)cc3)[C@@H]3OCC4=CC(=O)CCC4=C32)cc1 | 0.27 | 139 | 37.6
CN(C)c1ccc([C@H]2C[C@@]3(C)[C@@H](CC[C@@]3(O)C#Cc3ccccc3Br)[C@@H]3OCC4=CC(=O)CCC4=C32)cc1 | 8.6 | 7 | 62.7
CN(C)c1ccc([C@H]2C[C@@]3(C)[C@@H](CC[C@@]3(O)C#Cc3cccc(Cl)c3)[C@@H]3OCC4=CC(=O)CCC4=C32)cc1 | 12.5 | 4 | 48.9
CN(C)c1ccc([C@H]2C[C@@]3(C)[C@@H](CC[C@@]3(O)C#Cc3ccccn3)[C@@H]3OCC4=CC(=O)CCC4=C32)cc1 | 34 | 5 | 175
CN(C)c1ccc([C@H]2C[C@@]3(C)[C@@H](CC[C@@]3(O)C#Cc3ccc(C#N)cc3)[C@@H]3OCC4=CC(=O)CCC4=C32)cc1 | 3.7 | 11 | 41.3
CN(C)c1ccc([C@H]2C[C@@]3(C)[C@@H](CC[C@@]3(O)C#Cc3cccc(C(F)(F)F)c3)[C@@H]3OCC4=CC(=O)CCC4=C32)cc1 | 2.7 | 17 | 45.4
CN(C)c1ccc([C@H]2C[C@@]3(C)[C@@H](CC[C@@]3(O)C#Cc3ccc(Br)cc3)[C@@H]3OCC4=CC(=O)CCC4=C32)cc1 | 0.94 | 33 | 31.3
CN(C)c1ccc([C@H]2C[C@@]3(C)[C@@H](CC[C@@]3(O)C#Cc3cc(F)cc(F)c3)[C@@H]3OCC4=CC(=O)CCC4=C32)cc1 | 0.91 | 38 | 34.4
CN(C)c1ccc([C@H]2C[C@@]3(C)[C@@H](CC[C@@]3(O)C#Cc3ccccc3Cl)[C@@H]3OCC4=CC(=O)CCC4=C32)cc1 | 1.1 | 59 | 64.8
CN(C)c1ccc([C@H]2C[C@@]3(C)[C@@H](CC[C@@]3(O)C#Cc3ccccc3C(F)(F)F)[C@@H]3OCC4=CC(=O)CCC4=C32)cc1 | 3.2 | 16 | 51
Cc1ccc(C#C[C@]2(O)CC[C@H]3[C@@H]4OCC5=CC(=O)CCC5=C4[C@@H](c4ccc(N(C)C)cc4)C[C@@]32C)cc1 | 1.6 | 14 | 22.1
CN(C)c1ccc([C@H]2C[C@@]3(C)[C@@H](CC[C@@]3(O)C#Cc3ccncc3)[C@@H]3OCC4=CC(=O)CCC4=C32)cc1 | 39 | 6 | 247
Cc1cccc(C#C[C@]2(O)CC[C@H]3[C@@H]4OCC5=CC(=O)CCC5=C4[C@@H](c4ccc(N(C)C)cc4)C[C@@]32C)c1 | 2.9 | 13 | 36.3
CN(C)c1ccc([C@H]2C[C@@]3(C)[C@@H](CC[C@@]3(O)C#Cc3ccsc3)[C@@H]3OCC4=CC(=O)CCC4=C32)cc1 | 1.6 | 35 | 56
CN(C)c1ccc([C@H]2C[C@@]3(C)[C@@H](CC[C@@]3(O)C#Cc3cccc(F)c3)[C@@H]3OCC4=CC(=O)CCC4=C32)cc1 | 1 | 57 | 56.6
